The subject of data set [1] is MOVAS cells. Briefly: MOVAS cell calcification assay (Alizarin red). The class given is cell-based, mouse. How it is done:
A) Alizarin red staining of MOVAS cells stimulated with sCPP for 24 h in DMEM+10% FBS and treated or not with 50 uM of compounds. […] Statistical analysis was determined using one-way ANOVA with ***p<0.001. C) Percentage of cytotoxicity (LDH %) in MOVAS treated or not with compounds for 24 h. D) MOVAS cells were seeded onto half-area 96-well plate and incubated overnight. Then C5 or C6 at 50 uM or vehicle (DMSO), L-cysteine at 10 mM, PLP at 5 uM and the H2S sensitive fluorescent probe AzMC at 10 μM were added. The fluorescence was immediately measured in kinetic mode for 2 h at 37° C. with SpectraMax M5 reader, with excitation and emission wavelengths of 365 nm and 450 nm, respectively.
A) Alizarin red staining of Movas cells stimulated with sCPP for 24 h in DMEM+10% FBS and treated or not with 50 uM of Z20. […] C) Percentage of cytotoxicity (LDH %) in murine chondrocytes treated or not with Z20 for 24 h. Statistical analysis was determined using one-way ANOVA with ***p<0.001.
Alizarin red staining of MOVAS cells stimulated with sCPP for 24 h in DMEM+10% FBS and treated or not with different concentrations of compounds (A: C6) and (B: Z20). The graphs show Alizarin red absorbance at 570-630 nm. Statistical analysis was determined using one-way ANOVA with *p<0.05, **p<0.01, ***p<0.001.
CPP were generated by preparing 20 ml DMEM containing 10% FBS, 1 mmol/L CaCl2, 3.5 mmol/L inorganic phosphate (1.36 mmol/L NaH2PO4 and 2.14 mmol/L Na2HPO4) (Aghagolzadeh et al. Atherosclerosis, 2016). After 7 days incubation at 37° C., the suspension was centrifuged at 25000 g for 2 h at 4° C., and the pellet containing CPP was resuspended in 1 ml DMEM and stored at −20° C. until further use.
Mouse vascular smooth muscle cell line (MOVAS) cells were cultured according to the manufacturer's guidelines in DMEM culture medium supplemented with 10% FBS. Cells were cultured at 37° C. in a humidified atmosphere with 5% CO2. All cell culture experiments in 96-well plates were performed in triplicates and were repeated independently two times.
For calcification experiments, cells were seeded in 96-well plates at a density of 50,000 cells/well and left to attach for 18 h. Calcification of cell monolayers was induced by CPP (equivalent to 50 μg Ca/mL) for 24 h at 37° C., 5% CO2 in presence of various concentrations of compounds (all in final 0.1% DMSO), or of 0.1% DMSO as a control, to reach a final volume of 200 μl/well. Calcium deposition was assessed by 0.5% w/v Alizarin Red staining (pH 4.2). Briefly, after PBS washing, methanol fixation for 10 min at 4° C., and milli-Q water washing, cells were incubated for 60 min with 200 μL Alizarin Red solution and then washed four times with milli-Q water. Quantification was performed after crystal dissolution with cetylpyridinium chloride (10%) for 18 h. The absorbance was measured at 570 and 630 nm using the Spectramax M5e reader (Molecular Devices). The background (alizarin red staining obtained with cells in the absence of CPP) was subtracted from all values.

Data set [2] relates to MOVAS cells. Briefly: Cytotoxicity assay, LDH release. The class given is cell-based, mouse. The note with it: at 50 uM. The protocol:
A) Alizarin red staining of MOVAS cells stimulated with CPP for 24 h in DMEM+10% FBS in presence of different concentrations of compound 22401. […] The background (Alizarin red staining obtained with cells in the absence of CPP) was subtracted from all values. B) Percentage of cytotoxicity, as measured by LDH release, in MOVAS cells in the same conditions as A). Statistical analysis was determined using one-way ANOVA with *p<0.05, **p<0.01, ***p<0.001.
Measurement of lactate dehydrogenase (LDH) as a means of cytotoxicity assay was performed with using CytoTox-ONE Homogeneous Membrane Integrity Assay (Promega) according to the manufacturer's instructions. Values were calculated as percentage of cytotoxicity using the following formula: [(value in sample)−(background)]/[(value in Triton X-100-treated sample)−(background)]×100.

Data set [3] relates to WT murine primary chondrocytes. Briefly: Murine primary chondrocyte calcification (Alizarin red). The note with it: sCPP 24 h, DMEM+10% FBS, 50 uM. It counts as cell-based, mouse. The protocol:
(a) WT and Cse-deficient chondrocytes were incubated with a CSE activator (SU004, 50 μM) previously identified by high-through put screen, or with the equivalent volume of DMSO (0.1%) for 24 hours in calcification medium. STS 25 mM was used as a positive control for calcification inhibition. Calcium-containing crystals were stained with Alizarin red and quantified. (b) Cytotoxicity was assessed by LDH measurement and expressed as % over 100% cytotoxicity. (c) IL-6 secretion was measured by ELISA in supernatant of WT chondrocytes incubated with SU004 50 μM or STS 25 mM for 24 hours in calcification medium. (d) Primary human chondrocytes from 3 OA patients (P1, P2, P3) were incubated with SU004 50 μM, or with the equivalent volume of DMSO (0.1%) for 24 hours in calcification medium. Calcium-containing crystals were stained with Alizarin red and quantified. (e) Cytotoxicity was assessed by LDH measurement and expressed as % over 100% cytotoxicity. (f) IL-6 secretion was measured by ELISA in supernatant of human chondrocytes incubated for 24 hours with SU004 50 μM in calcification medium. *p<0.05, ** p<0.01, ****p<0.0001.
Primary murine chondrocytes were stimulated with secondary calciprotein particles (sCPP) for 24 h in DMEM+10% FBS in presence of C5 or C6 at 50 uM or vehicle (DMSO). Mineralization was analyzed by Alizarin red staining of the cells (A) and quantified (B). Statistical analysis was determined using one-way ANOVA with **p<0.01 and ***p<0.001.
Chondrocytes were isolated from 6 days old mice (Cse KO, Cse tg, Cbs KO and corresponding WT mice) as described previously (Nasi, So, et al. 2016). Tenocytes were isolated from 6 to 8 weeks old mice (Cse KO and WT) and by double digestion in Collagenase IV NB standard grade (Witec AG). […]
After incubation in calcification media, supernatant was collected for ELISA and LDH measurement, and cell monolayer was washed in PBS, fixed in 10% formol and crystal deposition analyzed through Alizarin red staining and quantified as previously described

The next data set deals with ATDCS chondrocytes. Briefly: ATDCS chondrocyte mineralization (Alizarin red). The class given is cell-based. The note with it: sCPP 24 h, different concentrations. The protocol: Alizarin red staining of ATDCS chondrocytes stimulated with sCPP for 24 h in DMEM+10% FBS in presence of different concentrations of compounds C5 and C6. The graphs show Alizarin red absorbance at 570-630 nm. Statistical analysis (in comparison to 0) was determined using one-way ANOVA with *p<0.05, **p<0.01, ***p<0.001, […].

For “N-{1-[(pyridin-2-yl)methyl]-1H-pyrazol-4-yl}benzamide [Compound 12]”, the “Calcification assay Max calcification inhibition (%) at the indicated dose of compound (uM)” value in the data set with MOVAS cells [1] (at 50 uM) was 43% at. Besides, the “Mineralization (Alizarin red)” value in the data set with MOVAS cells [1] (sCPP 24 h, 50 uM) is “inhibit murine vascular smooth muscle cells (MOVAS cells) mineralization”; in data set [3] it was “inhibit primary murine chondrocyte mineralization”. The “Mineralization (Alizarin red absorbance 570-630 nm)” value in the data set with MOVAS cells [1] (sCPP 24 h, different concentrations) is “Dose-dependent effect”; in the data set on ATDCS chondrocytes, “inhibit ATDCS mineralization in vitro in a dose dependent fashion”. The “Cytotoxicity assay LDH release (% of cytotoxicity)” value in the data set on MOVAS cells [2] was 13% at.

Values taken from patent US20240182475A1 (Université de Lausanne, priority 2021, published 2024).
